In patent US6531462B2, “Medicament for treating obesity and improving lipid metabolism” (priority 1997, dated 2003):

Experiments:
[1] = Example 3: dose response of 5-sitosten-3-one on serum lipids; assay type: in vivo, CDF1 male mice; details: for Free fatty acid / HDL-cholesterol / Phospholipid / Total cholesterol / Triglyceride: 3 weeks, mean (n=6) ± standard error
Description: (§1) 5Sitosten-3-one was synthesized from β-sitosterol (Tokyo Chemical Industry Co., Ltd.) according to the method of Parish (Parish, E. J., et al., Synthetic Communication, 22, pp.2839-2847, 1992), and purified by silica gel column chromatography and recrystallization. The content ratio of 24-ethyl isomer and 24-methyl compounds in the synthesized product was 6.5:3.5. As experimental animals, thirty 4-week old CDF1 male mice were purchased from Charles River Japan Inc. and divided into five experimental groups each composed of six mice. The test compounds were administered as the admixture in feeds, and the following groups were provided: (1) 0.1% addition, (2) 0.3% addition, (3) 0.5% addition, (4) a lipid-free feed without the addition of the test compound, and (5) control group without the addition of the test compound. A purified feed (modified AIN, Oriental Yeast Co.) was used as a basic feed, and supplemented with 10% soybean oil (Wako Pure Chemical Industries Co., Ltd.) to prepare solid feeds with or without the addition of the test compound. The lipid-free feed, per se, was processed to obtain solid feed. The animals were fed for a week with the feed for the control without the addition of test compound for acclimatization, and then the animals were allowed to feed with the respective feed ad libitum.
(§2) Each group of animals was housed in an aluminum cages of 22×33×11(h)cm (6 mice per a cage), and feedings were carried out at a temperature of 24±1° C. and a relative humidity of 55±5%, where light and darkness were controlled change every 12 hours. Measurements of body weights and feed intakes, and observations of general conditions were conducted three times a week. After the feeding for 3 week with the test feeds, the animals were subjected to autopsy and their bloods were collected. As serum lipid analyses, triglyceride, phospholipid, free fatty acid, total cholesterol, and HDL-cholesterol were measured by using a clinical test kit (Wako Pure Chemicals Industries Co., Ltd. ). Significances of the resulting values were examined by the variance analysis for the groups treated with the medicament, or by the t-test for the lipid-free feed group.

[2] = Feeding of rats with feed with 0.5% addition for 4 weeks (organ changes); assay type: in vivo; details: Fischer F344 rats
Description: The changes observed in the livers, pancreases, kidneys, and lungs in the groups treated with the medicament were commonly observed in the lipid-free feed group, although the degrees were different. In the lipid-free feed group, absolute weight and relative weight of livers increased by 4% and 6%, respectively, and absolute weight and relative weight of kidneys decreased by 12% and 11%, respectively. […] These changes were not observed when Fischer F344 rats were fed with the feed with 0.5% addition for 4 weeks, and therefore, the changes were considered as unique to CDF1 mice.

[3] = Example 3: general conditions and weight of organs; assay type: in vivo, CDF1 male mice
Description: as §1, §2

[4] = Example 1: general conditions and autopsical finding; assay type: in vivo, CDF1 male mice; details: 0.5% in feed, 2 weeks
Method: (§3) 5-Sitosten-3-one was prepared according to the method of Parish (Parish, E. J., et al., Synthetic Communication, 22, pp.2839-2847, 1992) by using β-sitosterol (Tokyo Chemical Industry Co., Ltd.) as a starting material and used in the experiments. The content ratio of 24-ethyl and 24-methyl compounds in the synthesized product was 6.5:3.5. As experimental animals, six CDF1 male mice (5-week old, Charles River Japan Inc.) were used in each experimental group. The animals were fed in aluminum cages for mice, and allowed to feed and water ad libitum. The animals were fed for 2 weeks under feeding conditions at a temperature of 24±1° C. and a relative humidity of 55±5%, where light and darkness were controlled to change every 12 hours, and each cage and floor mat (white flakes) were exchanged twice a week.
(§4) Modified AIN (Oriental Yeast Co.) was used as basic feed and mixed with 0.5% 5-sitosten-3-one to prepare test feeds. A feed used as a positive control was prepared by adding 0.5% of 4-cholesten-3-one (Japanese Patent Unexamined Publication No. Hei 5-170651/1993) to the basic feed. Non-treated mice as a control were fed solely with the basic feed. The basic feed was composed of 22.8% crude protein, 54.1% carbohydrates, 6.0% lipids, 4.9% fibers, 2.9% ash, and 8.7% water, and its calorie was 1,523 kJ. The feed was stored at 4° C. after preparation, and a fresh feed was supplied every day.
(§5) The animals were weighed at given intervals of time, and the average values and standard errors of the experimental groups were determined. In addition, feed consumptions were measured at given intervals of time and daily averages per mouse were determined. The animals were observed every day. After the end of the feeding, the animals were anesthetized to death with carbon dioxide gas, and bloods were collected from the vena cava to obtain serums. The animals were autopsied, and the brains, lungs, hearts, livers, spleens, kidneys, testis, adrenals and intraperitoneal fat were examined by the naked eye and weighed. As to serum lipid, neutral fats were measured by using a clinical test kit based on the enzyme method (Triglyceride-E Test, Wako Pure Chemicals Industries Co., Ltd.), and total cholesterol and cholestanol were measured by the method of Kasama (T. Kasama, et al., J. Chromatogr., 400, 241, 1987) with modifications, where the amount of benzoyl chloride was increased by 10 times, the reaction time was doubled, and the measurement was performed by using a high performance liquid chromatography system. Significant differences were determined by t-test for body weights and serum lipids on the basis of the non-treated control mice.

[5] = Example 1: serum lipids and serum metabolites of mice fed feed supplemented with 0.5% test compound; assay type: in vivo; details: for Serum metabolite: metabolite of the test compound detected in serum
Method: as §3, §4, §5

[6] = Example 1: body weight, body fat and feed intake of mice fed feed supplemented with 0.5% test compound; assay type: in vivo, CDF1 male mice
Method: as §3, §4, §5

[7] = Example 3: dose response of 5-sitosten-3-one on body weight, feed intake, feed efficiency and intraperitoneal fat; assay type: in vivo, CDF1 male mice; details: for Intraperitoneal fat: 3 weeks, mean (n=6) ± standard error; for Body weight gain: total throughout the experimental period
Description: as §1, §2

[8] = ratio relative to the non-treated control group, CDF1 mice

Substance: 5-sitosten-3-one (24-ethylcholest-5-en-3-one)
- Free fatty acid ([1]; 0.1% addition to feed): 1.41 ± 0.04 mEq/dl
- HDL-cholesterol ([1]; 0.1% addition to feed): 68.7 ± 13.6 mg/dL
- Phospholipid ([1]; 0.1% addition to feed): 237.8 ± 8.9 mg/dL
- Total cholesterol ([1]; 0.1% addition to feed): 164.8 ± 4.0 mg/dL
- Triglyceride ([1]; 0.1% addition to feed): 145.4 ± 8.5 mg/dL
- Change in HDL-cholesterol ([1]; 0.1-0.5% addition groups): no significant change
- Free fatty acid ([1]; 0.3% addition to feed): 1.05 ± 0.06 mEq/dl
- HDL-cholesterol ([1]; 0.3% addition to feed): 72.5 ± 7.7 mg/dL
- Phospholipid ([1]; 0.3% addition to feed): 187.0 ± 12.2 mg/dL
- Total cholesterol ([1]; 0.3% addition to feed): 125.5 ± 7.6 mg/dL
- Triglyceride ([1]; 0.3% addition to feed): 78.0 ± 0.9 mg/dL
- Triglyceride as compared to the control group (decrease down to) ([1]; 0.5% addition group): 26%
- Free fatty acid ([1]; 0.5% addition to feed): 0.87 ± 0.05 mEq/dl
- HDL-cholesterol ([1]; 0.5% addition to feed): 61.7 ± 4.3 mg/dL
- Phospholipid ([1]; 0.5% addition to feed): 172.5 ± 8.6 mg/dL
- Total cholesterol ([1]; 0.5% addition to feed): 102.9 ± 6.4 mg/dL
- Triglyceride ([1]; 0.5% addition to feed): 66.8 ± 2.3 mg/dL
- Organ weight changes (livers, pancreases, kidneys, lungs) [2]: not observed
- Liver weight difference ([3]; 0.1% addition group): no significant difference
- Absolute weights of pancreas ([3]; 0.1-0.5% addition groups): decreased in proportion to the amount of the medicament
- Changes in relative weight of pancreas ([3]; 0.1-0.5% addition groups): not significant
- Decrease of absolute weight of kidney ([3]; 0.3% addition group): 17%
- Decrease of relative weight of kidney ([3]; 0.3% addition group): 10%
- Increase of relative weight of livers ([3]; 0.3% addition group): 17%
- Absolute weight of lungs and spleens ([3]; 0.5% addition group): Decreases
- Decrease of absolute weight of kidney ([3]; 0.5% addition group): 32%
- Decrease of relative weight of kidney ([3]; 0.5% addition group): 17%
- Increase of absolute weight of livers ([3]; 0.5% addition group): 15%
- Increase of relative weight of livers ([3]; 0.5% addition group): 40%
- Relative weights of lungs and spleens ([3]; 0.5% addition group): not different from those of the control group
- General conditions (appearance, properties of feces, breath and behavior) ([3]; each experimental group, except for changes in body weight): No abnormality
- Histopathological change ([3]; organs of treated CDF1 mice): absence of any histopathological change
- General conditions [4]: normal
- Kidney weight at autopsy [4]: slight weight decrease
- Pathological abnormality in the other organs and tissues ([4]; autopsy): No pathological abnormality
- Cholestanol (serum), mean ± standard error ([5]; 0.5% in feed, 2 weeks, n=6): 0 mg/dL
- Neutral fats (serum), mean ± standard error ([5]; 0.5% in feed, 2 weeks, n=6): 56.5 ± 8.2 mg/dL
- Total cholesterol (serum), mean ± standard error ([5]; 0.5% in feed, 2 weeks, n=6): 81.3 ± 3.0 mg/dL
- Serum metabolite ([5]; CDF1 mice): 0
- Serum metabolite ([5]; CDF1 mice, listed as 5-sitosten-3-one): no cholestanol and other metabolites were detected
- Serum cholesterol [5, 8]: 51%
- Serum neutral fats [5, 8]: 15%
- Amount of intraperitoneal fat relative to non-treated control mice (FIG. 2) ([6]; 0.5% in feed for two weeks): half
- Body fat (subcutaneous fat and intraperitoneal fat) ([6]; 0.5% in feed for two weeks): Remarkable decreases
- Increase in body weight (FIG. 1) ([6]; 0.5% in feed, compared to non-treated control mice): remarkably suppressed
- Body weight gain [6, 8]: 56%
- Intraperitoneal fat [6, 8]: 50%
- Amount of intraperitoneal fat relative to the control group ([7]; 0.1% addition group): 83%
- Feed efficiency (body weight gain/feed intake) ([7]; 0.1% addition to feed): 0.079
- Intraperitoneal fat ([7]; 0.1% addition to feed): 996.0 ± 53.5 mg
- Body weight gain ([7]; 0.1% addition to feed): 4.89 g/mouse
- Changes in body weight (FIG. 4) ([7]; 0.1%, 0.3% and 0.5% addition, dose-dependent): body weight decreases were observed
- Amount of intraperitoneal fat relative to the control group ([7]; 0.3% addition group): 63%
- Feed efficiency (body weight gain/feed intake) ([7]; 0.3% addition to feed): 0.062
- Intraperitoneal fat ([7]; 0.3% addition to feed): 760.7 ± 36.9 mg
- Body weight gain ([7]; 0.3% addition to feed): 3.62 g/mouse
- Amount of intraperitoneal fat relative to the control group ([7]; 0.5% addition group): 42%
- Decrease of feed efficiency compared to the control group ([7]; 0.5% addition group): about 80%
- Feed efficiency (body weight gain/feed intake) ([7]; 0.5% addition to feed): 0.016
- Intraperitoneal fat ([7]; 0.5% addition to feed): 500.6 ± 79.2 mg
- Body weight gain ([7]; 0.5% addition to feed): 0.84 g/mouse
